pKd: −log10 of the molar value.
What was measured:
[1] = molecular target: T1, Progesterone receptor (Homo sapiens) (UniProt P06401); assay: Binding affinity to progesterone receptor relative to R5020
T1 sequence (whole entry): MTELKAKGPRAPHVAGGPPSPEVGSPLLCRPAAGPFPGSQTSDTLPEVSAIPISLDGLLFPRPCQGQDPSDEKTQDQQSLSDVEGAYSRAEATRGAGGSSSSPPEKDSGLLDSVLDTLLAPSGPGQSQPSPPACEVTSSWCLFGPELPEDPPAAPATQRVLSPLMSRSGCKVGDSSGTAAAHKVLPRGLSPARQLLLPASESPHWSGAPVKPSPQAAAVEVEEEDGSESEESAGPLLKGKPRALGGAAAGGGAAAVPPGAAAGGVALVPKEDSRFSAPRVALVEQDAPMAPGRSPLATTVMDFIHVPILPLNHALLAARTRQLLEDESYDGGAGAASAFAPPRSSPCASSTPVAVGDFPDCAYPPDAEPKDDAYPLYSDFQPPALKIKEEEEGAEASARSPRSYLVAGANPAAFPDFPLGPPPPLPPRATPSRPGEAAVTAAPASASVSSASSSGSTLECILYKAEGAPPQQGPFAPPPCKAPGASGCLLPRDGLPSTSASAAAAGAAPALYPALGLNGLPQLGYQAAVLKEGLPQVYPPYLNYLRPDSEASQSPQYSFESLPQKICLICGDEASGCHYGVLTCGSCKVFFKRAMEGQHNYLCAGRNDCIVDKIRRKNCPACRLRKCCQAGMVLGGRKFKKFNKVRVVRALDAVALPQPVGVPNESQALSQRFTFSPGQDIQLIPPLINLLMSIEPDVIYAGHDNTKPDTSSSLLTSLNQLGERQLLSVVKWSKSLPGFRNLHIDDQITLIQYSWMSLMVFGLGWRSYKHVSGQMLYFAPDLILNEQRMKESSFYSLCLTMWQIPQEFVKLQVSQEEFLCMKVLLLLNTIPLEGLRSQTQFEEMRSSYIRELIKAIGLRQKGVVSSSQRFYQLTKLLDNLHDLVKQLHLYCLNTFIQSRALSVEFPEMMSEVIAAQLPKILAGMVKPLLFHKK

Progesterone receptor = molecular target: T2, Progesterone receptor (Homo sapiens, UniProt P06401); assay: Binding affinity to progesterone receptor
T2 sequence (P06401 whole entry): T1 sequence (whole entry)

| Compound | relative binding affinity (RBA) [1] | pKd (Progesterone receptor) |
| --- | --- | --- |
| CC1(C)OC(=S)Nc2ccc(-c3ccc(C#N)n3CCF)cc21 | 18.5 | – |
| CCC(=O)[C@@]1(C)CC[C@H]2[C@@H]3CCC4=CC(=O)CCC4=C3CC[C@@]21C [PROMEGESTONE] | – | 9.40 |
| CC1(C)OC(=S)Nc2ccc(-c3ccc(C#N)n3CCCF)cc21 | 0.99 | – |
